Assays:
[1] = biological target: T1, CYP2C8 (Homo sapiens, UniProt P10632); test: CYP2C8 inhibition assay (substrate DBF); conditions: 0.0169 to […] tested, na = concentration-dependent inhibition not observed
T1 sequence (P10632 1-490): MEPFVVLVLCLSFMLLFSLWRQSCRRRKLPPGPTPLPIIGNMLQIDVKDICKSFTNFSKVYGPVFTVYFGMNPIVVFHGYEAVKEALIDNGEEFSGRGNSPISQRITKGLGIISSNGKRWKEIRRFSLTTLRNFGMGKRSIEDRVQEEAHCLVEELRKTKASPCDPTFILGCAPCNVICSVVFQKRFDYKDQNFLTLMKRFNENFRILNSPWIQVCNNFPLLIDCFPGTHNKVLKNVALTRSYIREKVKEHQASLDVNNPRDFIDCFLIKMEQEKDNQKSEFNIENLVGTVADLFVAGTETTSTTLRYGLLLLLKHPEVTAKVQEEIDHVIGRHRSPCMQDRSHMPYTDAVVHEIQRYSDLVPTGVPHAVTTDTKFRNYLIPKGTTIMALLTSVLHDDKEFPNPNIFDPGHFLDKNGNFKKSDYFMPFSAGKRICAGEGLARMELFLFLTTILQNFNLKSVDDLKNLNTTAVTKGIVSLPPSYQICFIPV
Excerpt: (§1) The CYP inhibition assays used microsomes (Supersomes®, Gentest Corp., Woburn, Mass.) prepared from insect cells, each expressing an individual CYP subtype (CYP1A2, CYP2A6, CYP2B6, CYP2C8, CYP2C9, CYP2C19, CYP2D6, CYP2E1 or CYP3A4) expressed from the corresponding human CYP cDNA using a baculovirus expression vector. The microsomes also incorporated supplemental cDNA-expressed human reductase and/or cytochrome b5, as these enzymes stimulate the activity of the CYPs, allowing for a reduction in the amount of enzyme required per reaction (Gentest Corp.). The assays monitored, via fluorescence detection, the formation of a fluorescent metabolite following incubation of the microsomes with a specific CYP substrate. […]
(§2) Eight inhibitor and test compound concentrations were tested using 3-fold serial dilutions. […] The amount of metabolic product formed was quantified by fluorescence detection in a fluorescence plate reader utilizing excitation and emission filters that had been optimized for the detection of each metabolite.
(§3) Data Analysis—The mean of the duplicate fluorescent signals in the presence and absence (vehicle control) of each compound was calculated and corrected for the background noise. […]

[2] = biological target: CYP2C19 (Homo sapiens, UniProt P33261); test: CYP2C19 inhibition assay (substrate CEC); conditions: read-out: Pyridoxal 5′-phosphate IC50, 0.0169 to […] tested, listed as pyridoxal 5′-phosphate
Excerpt: as §1, §2, §3

Chain of CYP2C19 (P33261 whole entry): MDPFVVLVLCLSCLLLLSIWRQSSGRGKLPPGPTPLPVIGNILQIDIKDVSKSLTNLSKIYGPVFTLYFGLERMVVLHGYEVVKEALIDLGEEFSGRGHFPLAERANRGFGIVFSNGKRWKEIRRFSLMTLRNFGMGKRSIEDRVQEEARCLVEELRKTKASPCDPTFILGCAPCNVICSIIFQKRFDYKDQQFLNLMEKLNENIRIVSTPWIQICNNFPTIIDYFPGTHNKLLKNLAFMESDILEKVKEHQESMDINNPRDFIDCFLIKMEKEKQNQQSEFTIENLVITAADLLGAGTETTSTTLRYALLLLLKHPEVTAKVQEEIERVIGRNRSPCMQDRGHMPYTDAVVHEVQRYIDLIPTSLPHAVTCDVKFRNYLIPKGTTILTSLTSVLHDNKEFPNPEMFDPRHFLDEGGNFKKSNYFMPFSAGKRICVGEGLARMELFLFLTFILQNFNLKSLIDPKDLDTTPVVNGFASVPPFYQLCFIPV

Cc1ncc(COP(=O)(O)O)c(C=O)c1O [P5P, pyridoxal-5-phosphate]
Pyridoxal 5′-phosphate IC50 [1]: did not inhibit
IC50 [2]: ~33 µM
